Measured values: patent US20070155835A1, “USE OF ORTHO-PH[…]/OR DERIVATIVES THEREOF FOR INHIBITING THE ASEXUAL REPRODUCTION OF FUNGI” (Henkel Kommanditgesellschaft auf Aktien (Henkel KGaA), priority 2004, published 2007)

Experiments:
[1] = tested on: Aspergillus niger (DSM1988); test: Sporulation of Aspergillus niger on wort agar plates containing active substance, assessed visually; assay type: cell-based
Procedure: (§1) The surfaces of wort agar plates were each contaminated with 100 μl of a germ suspension (10^3 CFU/ml) of Aspergillus niger (DSM1988). Different quantities of active substance (solutions in ethanol, see table for final concentrations) had previously been added to the agar plates. The plates were incubated for 3 days at 25° C. Sporulation was assessed visually, and the sporulation rate (in %) was determined.
as §1

[2] = tested on: Aspergillus niger (DSM1988); test: Growth of the test strain on wort agar plates containing active substance; assay type: cell-based
Procedure: The surfaces of wort agar plates were each contaminated with 100 μl of a germ suspension (10^3 CFU/ml) of Aspergillus niger (DSM1988). Different quantities of active substance (solutions in ethanol, see table for final concentrations) had previously been added to the agar plates. The plates were incubated for 3 days at 25° C. Sporulation was assessed visually, and the sporulation rate (in %) was determined. […] A growth-inhibiting or germ-killing effect occurred only at a concentration of 0.05 wt % OPP.
as §1

`CC(C)=CCCC(C)=CCCC(C)=CCO` [Farnesol, reference compound] was tested. Which “Sporulation [%]” value ([1]; Farnesol concentration 25 μM, comparative experiment) did it give?
Its value is 90%.

What about the “Sporulation [%]” value ([1]; Farnesol concentration 62.5 μM, comparative experiment) of the same compound?
The value was 75%.

And the “Sporulation [%]” value ([1]; Farnesol concentration 125 μM, comparative experiment)?
Its value is 50%.

What about the “Sporulation [%]” value ([1]; Farnesol concentration 250 μM, comparative experiment) of the same compound?
Its value is 10%.

And the “Sporulation [%]” value ([1]; Farnesol concentration 500 μM, comparative experiment)?
The value was 0%.

Which “Sporulation [%]” value ([1]; OPP concentration 0.00001 %, wort agar, 3 days at 25° C.) does the source give for `Oc1ccccc1-c1ccccc1` [OPP, Ortho-Phenylphenol] here?
The value was 95%.

What about the “Sporulation [%]” value ([1]; OPP concentration 0.00005 %, wort agar, 3 days at 25° C.) of the same compound?
Its value is 95%.

What about the “Sporulation [%]” value ([1]; OPP concentration 0.0001 %, wort agar, 3 days at 25° C.) of the same compound?
The value was 85%.

And the “Sporulation [%]” value ([1]; OPP concentration 0.0005 %, wort agar, 3 days at 25° C.)?
Its value is 10%.

What about the “Sporulation [%]” value ([1]; OPP concentration 0.001 %, wort agar, 3 days at 25° C.) of the same compound?
The value was 0%.

And the “Sporulation [%]” value ([1]; OPP concentration 0.005 %, wort agar, 3 days at 25° C.)?
Its value is 0%.

What about the “Sporulation [%]” value ([1]; OPP concentration 0.05 %, wort agar, 3 days at 25° C.) of the same compound?
The value was “no growth”.

And the “Sporulation [%]” value ([1]; OPP concentration 0.1 %, wort agar, 3 days at 25° C.)?
The value was “no growth”.

And the “Sporulation [%]” value ([1]; OPP concentration 1.0 %, wort agar, 3 days at 25° C.)?
The value was “no growth”.

What about the “Concentration completely suppressing sporulation relative to growth-inhibiting or germ-killing concentration” value ([1]; no growth-inhibiting effect at that concentration) of the same compound?
The value was “fifty times lower”.

And the “Utilization concentration at which sporulation was completely suppressed” value ([1]; wort agar, 3 days at 25° C.)?
Its value is 0.001 wt %.

And the “Concentration at which a growth-inhibiting or germ-killing effect occurred” value ([2]; wort agar, 3 days at 25° C.)?
The value was 0.05 wt %.

Which results are given for “Ortho-Phenylphenol/Silicic Acid Ester [OPP/SAE]”?
Sporulation [%] ([1]; OPP/SEA concentration 0.00001 %, wort agar, 3 days at 25° C.): 95%; Sporulation [%] ([1]; OPP/SEA concentration 0.00005 %, wort agar, 3 days at 25° C.): 95%; Sporulation [%] ([1]; OPP/SEA concentration 0.0001 %, wort agar, 3 days at 25° C.): 95%; Sporulation [%] ([1]; OPP/SEA concentration 0.0005 %, wort agar, 3 days at 25° C.): 50%; Sporulation [%] ([1]; OPP/SEA concentration 0.001 %, wort agar, 3 days at 25° C.): 25%; Sporulation [%] ([1]; OPP/SEA concentration 0.005 %, wort agar, 3 days at 25° C.): 0%; Sporulation [%] ([1]; OPP/SEA concentration 0.01 %, wort agar, 3 days at 25° C.): 0%; Utilization concentration at which sporulation was completely suppressed ([1]; wort agar, 3 days at 25° C.): 0.005 wt %; Effect of the concentrations used on growth of the test strain ([2]; concentrations of the tables, unless otherwise indicated in the tables): did not prevent growth of the test strain
